# From ChEMBL document CHEMBL5634160, “Synthesis, biological evaluation and action mechanism of 7H-[1,2,4] triazolo [3,4-b] [1,3,4] thiadiazine-phenylhydrazone derivatives as α-glucosidase inhibitors” (Eur J Med Chem, 2023)
# Target: Alpha-glucosidase (Saccharomyces cerevisiae S288c, UniProt P53341+P38158+P07265)
# Assay: Inhibition of Saccharomyces cerevisiae alpha-glucosidase using nitrophenol-alpha-D-glucopyranoside (pNPG) as substrate incubated for 15 mins
# Format: protein assay
row,IC50 [µM],Structure (SMILES)
1,55.42,Oc1ccccc1/C=N/Nc1nnc2n1N=C(c1ccccc1)CS2
2,41.83,Clc1ccccc1/C=N/Nc1nnc2n1N=C(c1ccccc1)CS2
